How the values were obtained:
Set-up in all cases: dose 5 mg/kg, route intravenous
Conditions in all cases: in vivo
[1] = tested on: Pancreas; assay: Drug uptake in albino Wistar Hannover rat pancreas at 5 mg/kg, iv by LESA-MS analysis; type: ADME, organism-based
[2] = tested on: Liver; assay: Drug uptake in albino Wistar Hannover rat liver at 5 mg/kg, iv by LESA-MS analysis; type: ADME, organism-based
[3] = tested on: Blood; assay: Biodistribution in albino Wistar Hannover rat whole blood at 5 mg/kg, iv after 5 mins by liquid scintillation counting; type: ADME, organism-based
[4] = tested on: Spleen; assay: Biodistribution in albino Wistar Hannover rat spleen at 5 mg/kg, iv after 5 mins by autoradiography analysis; type: ADME, organism-based
[5] = tested on: Lung; assay: Biodistribution in albino Wistar Hannover rat lung at 5 mg/kg, iv after 24 hrs by autoradiography analysis; type: ADME, organism-based
[6] = tested on: Spleen; assay: Biodistribution in albino Wistar Hannover rat spleen at 5 mg/kg, iv after 4 hrs by autoradiography analysis; type: ADME, organism-based
[7] = tested on: Spleen; assay: Biodistribution in albino Wistar Hannover rat spleen at 5 mg/kg, iv after 24 hrs by autoradiography analysis; type: ADME, organism-based
[8] = tested on: Pituitary gland; assay: Drug uptake in albino Wistar Hannover rat pituitary at 5 mg/kg, iv by LESA-MS analysis; type: ADME, organism-based
[9] = tested on: Brain; assay: Biodistribution in albino Wistar Hannover rat brain at 5 mg/kg, iv after 4 hrs by autoradiography analysis; type: ADME, organism-based
[10] = tested on: Plasma; assay: Biodistribution in albino Wistar Hannover rat plasma at 5 mg/kg, iv after 4 hrs by liquid scintillation counting; type: ADME, organism-based
[11] = tested on: Rattus norvegicus; assay: Biodistribution in albino Wistar Hannover rat salivary gland at 5 mg/kg, iv after 5 mins by autoradiography analysis; type: ADME, organism-based
[12] = tested on: Rattus norvegicus; assay: Biodistribution in albino Wistar Hannover rat testis at 5 mg/kg, iv after 24 hrs by autoradiography analysis; type: ADME, organism-based
[13] = tested on: Pituitary gland; assay: Biodistribution in albino Wistar Hannover rat pituitary at 5 mg/kg, iv after 24 hrs by autoradiography analysis; type: ADME, organism-based
[14] = tested on: Rattus norvegicus; assay: Biodistribution in albino Wistar Hannover rat renal cortex at 5 mg/kg, iv after 5 mins by autoradiography analysis; type: ADME, organism-based
[15] = tested on: Thymus; assay: Drug uptake in albino Wistar Hannover rat thymus at 5 mg/kg, iv by LESA-MS analysis; type: ADME, organism-based
[16] = tested on: Rattus norvegicus; assay: Biodistribution in albino Wistar Hannover rat renal cortex at 5 mg/kg, iv after 4 hrs by autoradiography analysis; type: ADME, organism-based
[17] = Drug uptake in albino Wistar Hannover rat brown fat at 5 mg/kg, iv by LESA-MS analysis; type: ADME, organism-based, Brown adipose tissue
[18] = tested on: Blood; assay: Biodistribution in albino Wistar Hannover rat whole blood at 5 mg/kg, iv after 24 hrs by liquid scintillation counting; type: ADME, organism-based
[19] = tested on: Pituitary gland; assay: Biodistribution in albino Wistar Hannover rat pituitary at 5 mg/kg, iv after 4 hrs by autoradiography analysis; type: ADME, organism-based
[20] = tested on: Rattus norvegicus; assay: Biodistribution in albino Wistar Hannover rat adipose tissue at 5 mg/kg, iv after 4 hrs by autoradiography analysis; type: ADME, organism-based
[21] = tested on: Rattus norvegicus; assay: Biodistribution in albino Wistar Hannover rat epididymis at 5 mg/kg, iv after 4 hrs by autoradiography analysis; type: ADME, organism-based
[22] = tested on: Rattus norvegicus; assay: Biodistribution in albino Wistar Hannover rat testis at 5 mg/kg, iv after 5 mins by autoradiography analysis; type: ADME, organism-based
[23] = tested on: Rattus norvegicus; assay: Biodistribution in albino Wistar Hannover rat testis at 5 mg/kg, iv after 4 hrs by autoradiography analysis; type: ADME, organism-based
[24] = Drug uptake in albino Wistar Hannover rat testis at 5 mg/kg, iv by LESA-MS analysis; type: ADME, organism-based
[25] = tested on: Rattus norvegicus; assay: Biodistribution in albino Wistar Hannover rat muscle cranial at 5 mg/kg, iv after 4 hrs by autoradiography analysis; type: ADME, organism-based, Muscle tissue
[26] = tested on: Rattus norvegicus; assay: Biodistribution in albino Wistar Hannover rat bone marrow at 5 mg/kg, iv after 4 hrs by autoradiography analysis; type: ADME, organism-based
[27] = tested on: Rattus norvegicus; assay: Biodistribution in albino Wistar Hannover rat myocardium at 5 mg/kg, iv after 24 hrs by autoradiography analysis; type: ADME, organism-based
[28] = tested on: Rattus norvegicus; assay: Biodistribution in albino Wistar Hannover rat muscle caudal at 5 mg/kg, iv after 24 hrs by autoradiography analysis; type: ADME, organism-based, Muscle tissue
[29] = tested on: Harderian gland; assay: Biodistribution in albino Wistar Hannover rat harderian gland at 5 mg/kg, iv after 24 hrs by autoradiography analysis; type: ADME, organism-based
[30] = tested on: Liver; assay: Half life in albino Wistar Hannover rat liver at 5 mg/kg, iv by autoradiography analysis; type: ADME, organism-based
[31] = tested on: Kidney; assay: Drug uptake in albino Wistar Hannover rat outer medulla of kidney at 5 mg/kg, iv by LESA-MS analysis; type: ADME, organism-based
[32] = Half life in albino Wistar Hannover rat salivary gland at 5 mg/kg, iv by autoradiography analysis; type: ADME, organism-based
[33] = tested on: Zone of skin; assay: Biodistribution in albino Wistar Hannover rat skin at 5 mg/kg, iv after 4 hrs by autoradiography analysis; type: ADME, organism-based
[34] = Half life in albino Wistar Hannover rat adipose tissue at 5 mg/kg, iv by autoradiography analysis; type: ADME, organism-based
[35] = tested on: Rattus norvegicus; assay: Biodistribution in albino Wistar Hannover rat bone marrow at 5 mg/kg, iv after 5 mins by autoradiography analysis; type: ADME, organism-based
[36] = Drug uptake in albino Wistar Hannover rat white fat at 5 mg/kg, iv by LESA-MS analysis; type: ADME, organism-based, White adipose tissue
[37] = tested on: Stomach; assay: Drug uptake in albino Wistar Hannover rat stomach at 5 mg/kg, iv by LESA-MS analysis; type: ADME, organism-based
[38] = tested on: Rattus norvegicus; assay: Biodistribution in albino Wistar Hannover rat salivary gland at 5 mg/kg, iv after 24 hrs by autoradiography analysis; type: ADME, organism-based
[39] = tested on: Thymus; assay: Biodistribution in albino Wistar Hannover rat thymus at 5 mg/kg, iv after 4 hrs by autoradiography analysis; type: ADME, organism-based
[40] = tested on: Rattus norvegicus; assay: Biodistribution in albino Wistar Hannover rat muscle caudal at 5 mg/kg, iv after 4 hrs by autoradiography analysis; type: ADME, organism-based, Muscle tissue
[41] = tested on: Rattus norvegicus; assay: Biodistribution in albino Wistar Hannover rat renal cortex at 5 mg/kg, iv after 24 hrs by autoradiography analysis; type: ADME, organism-based
[42] = Drug uptake in albino Wistar Hannover rat myocardium at 5 mg/kg, iv by LESA-MS analysis; type: ADME, organism-based
[43] = tested on: Rattus norvegicus; assay: Biodistribution in albino Wistar Hannover rat bone marrow at 5 mg/kg, iv after 24 hrs by autoradiography analysis; type: ADME, organism-based
[44] = Half life in albino Wistar Hannover rat muscle caudal at 5 mg/kg, iv by autoradiography analysis; type: ADME, organism-based, Muscle tissue
[45] = tested on: Pancreas; assay: Biodistribution in albino Wistar Hannover rat pancreas at 5 mg/kg, iv after 24 hrs by autoradiography analysis; type: ADME, organism-based
[46] = tested on: Pituitary gland; assay: Biodistribution in albino Wistar Hannover rat pituitary at 5 mg/kg, iv after 5 mins by autoradiography analysis; type: ADME, organism-based
[47] = tested on: Thymus; assay: Half life in albino Wistar Hannover rat thymus at 5 mg/kg, iv by autoradiography analysis; type: ADME, organism-based
[48] = tested on: Rattus norvegicus; assay: Biodistribution in albino Wistar Hannover rat adrenal cortex at 5 mg/kg, iv after 5 mins by autoradiography analysis; type: ADME, organism-based
[49] = tested on: Rattus norvegicus; assay: Biodistribution in albino Wistar Hannover rat epididymis at 5 mg/kg, iv after 5 mins by autoradiography analysis; type: ADME, organism-based
[50] = tested on: Rattus norvegicus; assay: Biodistribution in albino Wistar Hannover rat tongue at 5 mg/kg, iv after 4 hrs by autoradiography analysis; type: ADME, organism-based
[51] = tested on: Brain; assay: Half life in albino Wistar Hannover rat brain at 5 mg/kg, iv by autoradiography analysis; type: ADME, organism-based
[52] = tested on: Liver; assay: Biodistribution in albino Wistar Hannover rat liver at 5 mg/kg, iv after 5 mins by autoradiography analysis; type: ADME, organism-based

Drug uptake [1]: 23.7% | Drug uptake [2]: 12.9% | Drug uptake [3]: 830 ngequiv/g | Drug uptake [4]: 7308 ngequiv/g | Drug uptake [5]: 1708 ngequiv/g | Drug uptake [6]: 10694 ngequiv/g | Drug uptake [7]: 3306 ngequiv/g | Drug uptake [8]: 47.8% | Drug uptake [9]: 122 ngequiv/g | Drug uptake [10]: 192 ngequiv/g | Drug uptake [11]: 10729 ngequiv/g | Drug uptake [12]: 633 ngequiv/g | Drug uptake [13]: 2350 ngequiv/g | Drug uptake [14]: 19088 ngequiv/g | Drug uptake [15]: 67.2% | Drug uptake [16]: 8020 ngequiv/g | Drug uptake [17]: 47.1% | Drug uptake [18]: 122 ngequiv/g | Drug uptake [19]: 7747 ngequiv/g | Drug uptake [20]: 537 ngequiv/g | Drug uptake [21]: 2290 ngequiv/g | Drug uptake [22]: 938 ngequiv/g | Drug uptake [23]: 1510 ngequiv/g | Drug uptake [24]: 79.5% | Drug uptake [25]: 2972 ngequiv/g | Drug uptake [26]: 3910 ngequiv/g | Drug uptake [27]: 1207 ngequiv/g | Drug uptake [28]: 670 ngequiv/g | Drug uptake [29]: 6246 ngequiv/g | t1/2 [30]: 31.2 h | Drug uptake [31]: 20.8% | t1/2 [32]: 20.3 h | Drug uptake [33]: 1997 ngequiv/g | t1/2 [34]: 27.1 h | Drug uptake [35]: 4445 ngequiv/g | Drug uptake [36]: 100% | Drug uptake [37]: 34.6% | Drug uptake [38]: 1877 ngequiv/g | Drug uptake [39]: 3372 ngequiv/g | Drug uptake [40]: 2606 ngequiv/g | Drug uptake [41]: 2627 ngequiv/g | Drug uptake [42]: 22.6% | Drug uptake [43]: 1156 ngequiv/g | t1/2 [44]: 19.7 h | Drug uptake [45]: 4138 ngequiv/g | Drug uptake [46]: 8110 ngequiv/g | t1/2 [47]: 22.7 h | Drug uptake [48]: 21006 ngequiv/g | Drug uptake [49]: 1728 ngequiv/g | Drug uptake [50]: 3786 ngequiv/g | t1/2 [51]: 32.7 h | Drug uptake [52]: 5984 ngequiv/g
SMILES: CN(CCc1cc(C(F)(F)F)cc(C(F)(F)F)c1)C(=O)[C@H](c1ccccc1)N1CCN(CC2CC2)CC1.Cl.O
